The values that follow come from patent publication US20220009920A1 (GB005, Inc., priority 2020, published 2022).

Holding throughout (assay): Large panel kinase profiling
What all share (type): biochemical
Common to all, as to details: 1 μM test article, 1 mM ATP

One assay addresses T1, PRKD3 (Homo sapiens, UniProt O94806).
T1 sequence (O94806 1-890): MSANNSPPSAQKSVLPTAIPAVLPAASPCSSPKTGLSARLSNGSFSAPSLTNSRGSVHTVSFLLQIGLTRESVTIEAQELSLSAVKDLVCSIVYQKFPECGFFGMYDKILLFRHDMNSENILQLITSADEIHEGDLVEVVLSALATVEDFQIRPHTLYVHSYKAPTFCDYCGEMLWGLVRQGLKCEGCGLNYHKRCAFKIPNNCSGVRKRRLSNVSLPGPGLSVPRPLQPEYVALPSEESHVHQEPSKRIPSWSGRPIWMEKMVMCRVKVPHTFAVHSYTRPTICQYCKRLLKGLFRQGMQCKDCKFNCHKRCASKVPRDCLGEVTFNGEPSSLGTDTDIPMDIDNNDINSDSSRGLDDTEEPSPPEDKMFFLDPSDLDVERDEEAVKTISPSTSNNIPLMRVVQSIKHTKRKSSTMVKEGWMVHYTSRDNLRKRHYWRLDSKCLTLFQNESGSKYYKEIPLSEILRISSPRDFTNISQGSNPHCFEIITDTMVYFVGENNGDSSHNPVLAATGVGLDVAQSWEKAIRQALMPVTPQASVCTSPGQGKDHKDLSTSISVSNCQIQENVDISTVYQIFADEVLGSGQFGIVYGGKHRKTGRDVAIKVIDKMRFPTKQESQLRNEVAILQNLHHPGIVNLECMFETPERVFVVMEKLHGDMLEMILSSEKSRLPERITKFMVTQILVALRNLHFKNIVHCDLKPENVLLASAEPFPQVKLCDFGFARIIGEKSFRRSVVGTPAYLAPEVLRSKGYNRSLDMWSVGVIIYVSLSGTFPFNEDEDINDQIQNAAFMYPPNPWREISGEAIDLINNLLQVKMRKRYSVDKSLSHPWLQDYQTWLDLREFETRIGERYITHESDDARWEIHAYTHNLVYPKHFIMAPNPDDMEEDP
Put shortly:
(§1)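 Fluorescence intensity (Ex 360 nm, Em 485 nm) was monitored continuously, once per minute, in PhosphoSens CSox-Sensor kinase reactions held at 30° C. Compound was present at 1 μM and ATP at 1 mM.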

A further assay has as its target T2, BTK (Homo sapiens, UniProt Q06187).
T2 construct: purchased Cama
Put shortly: as §1

A further assay concerns the target PRKACG (Homo sapiens, UniProt P22612). Put shortly: as §1
A further assay deals with T3, CHEK2/CHK2 (Homo sapiens, UniProt O96017).
T3 construct: AssayQuant Technologies, Inc. (ran the panel)
T3 sequence (O96017 whole entry): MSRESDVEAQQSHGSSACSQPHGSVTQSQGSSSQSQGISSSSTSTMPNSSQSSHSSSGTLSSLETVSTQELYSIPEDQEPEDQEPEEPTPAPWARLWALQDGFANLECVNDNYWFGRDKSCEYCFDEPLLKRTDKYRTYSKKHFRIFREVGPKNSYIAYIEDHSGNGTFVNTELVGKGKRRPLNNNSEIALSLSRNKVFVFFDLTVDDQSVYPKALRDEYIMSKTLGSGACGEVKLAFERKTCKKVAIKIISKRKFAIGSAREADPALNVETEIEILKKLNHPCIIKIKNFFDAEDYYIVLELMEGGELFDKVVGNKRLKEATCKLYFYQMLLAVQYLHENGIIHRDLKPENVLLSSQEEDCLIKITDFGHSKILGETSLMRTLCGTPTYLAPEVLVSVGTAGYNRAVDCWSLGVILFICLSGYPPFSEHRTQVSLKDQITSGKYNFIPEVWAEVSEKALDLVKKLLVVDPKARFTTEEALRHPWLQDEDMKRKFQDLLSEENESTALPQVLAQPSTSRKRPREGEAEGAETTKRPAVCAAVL
Put shortly:
as §1

In another assay the target is T4, HIPK4 (Homo sapiens, UniProt Q8NE63).
T4 construct: AssayQuant Technologies, Inc. (service provider)
T4 sequence (Q8NE63 1-616): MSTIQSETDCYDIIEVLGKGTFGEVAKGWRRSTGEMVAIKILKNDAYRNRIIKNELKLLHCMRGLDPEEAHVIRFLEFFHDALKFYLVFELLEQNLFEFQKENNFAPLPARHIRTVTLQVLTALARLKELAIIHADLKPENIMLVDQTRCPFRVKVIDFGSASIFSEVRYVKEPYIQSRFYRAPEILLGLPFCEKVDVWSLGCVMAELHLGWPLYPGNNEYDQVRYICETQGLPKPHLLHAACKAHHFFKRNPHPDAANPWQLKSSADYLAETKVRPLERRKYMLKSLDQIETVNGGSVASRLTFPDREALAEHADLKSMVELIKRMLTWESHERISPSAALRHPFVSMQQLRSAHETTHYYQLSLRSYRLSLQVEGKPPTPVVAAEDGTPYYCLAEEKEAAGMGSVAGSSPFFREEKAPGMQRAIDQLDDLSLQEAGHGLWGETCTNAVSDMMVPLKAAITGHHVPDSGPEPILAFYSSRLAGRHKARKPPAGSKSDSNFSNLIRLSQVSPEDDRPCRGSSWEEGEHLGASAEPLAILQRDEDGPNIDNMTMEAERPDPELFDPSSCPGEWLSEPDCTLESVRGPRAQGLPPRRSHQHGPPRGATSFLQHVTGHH
Put shortly: as §1

In another assay the target is T5, HIPK3 (Homo sapiens, UniProt Q9H422).
T5 construct: AssayQuant Technologies, Inc. (service provider)
T5 sequence (Q9H422 whole entry, species assumed): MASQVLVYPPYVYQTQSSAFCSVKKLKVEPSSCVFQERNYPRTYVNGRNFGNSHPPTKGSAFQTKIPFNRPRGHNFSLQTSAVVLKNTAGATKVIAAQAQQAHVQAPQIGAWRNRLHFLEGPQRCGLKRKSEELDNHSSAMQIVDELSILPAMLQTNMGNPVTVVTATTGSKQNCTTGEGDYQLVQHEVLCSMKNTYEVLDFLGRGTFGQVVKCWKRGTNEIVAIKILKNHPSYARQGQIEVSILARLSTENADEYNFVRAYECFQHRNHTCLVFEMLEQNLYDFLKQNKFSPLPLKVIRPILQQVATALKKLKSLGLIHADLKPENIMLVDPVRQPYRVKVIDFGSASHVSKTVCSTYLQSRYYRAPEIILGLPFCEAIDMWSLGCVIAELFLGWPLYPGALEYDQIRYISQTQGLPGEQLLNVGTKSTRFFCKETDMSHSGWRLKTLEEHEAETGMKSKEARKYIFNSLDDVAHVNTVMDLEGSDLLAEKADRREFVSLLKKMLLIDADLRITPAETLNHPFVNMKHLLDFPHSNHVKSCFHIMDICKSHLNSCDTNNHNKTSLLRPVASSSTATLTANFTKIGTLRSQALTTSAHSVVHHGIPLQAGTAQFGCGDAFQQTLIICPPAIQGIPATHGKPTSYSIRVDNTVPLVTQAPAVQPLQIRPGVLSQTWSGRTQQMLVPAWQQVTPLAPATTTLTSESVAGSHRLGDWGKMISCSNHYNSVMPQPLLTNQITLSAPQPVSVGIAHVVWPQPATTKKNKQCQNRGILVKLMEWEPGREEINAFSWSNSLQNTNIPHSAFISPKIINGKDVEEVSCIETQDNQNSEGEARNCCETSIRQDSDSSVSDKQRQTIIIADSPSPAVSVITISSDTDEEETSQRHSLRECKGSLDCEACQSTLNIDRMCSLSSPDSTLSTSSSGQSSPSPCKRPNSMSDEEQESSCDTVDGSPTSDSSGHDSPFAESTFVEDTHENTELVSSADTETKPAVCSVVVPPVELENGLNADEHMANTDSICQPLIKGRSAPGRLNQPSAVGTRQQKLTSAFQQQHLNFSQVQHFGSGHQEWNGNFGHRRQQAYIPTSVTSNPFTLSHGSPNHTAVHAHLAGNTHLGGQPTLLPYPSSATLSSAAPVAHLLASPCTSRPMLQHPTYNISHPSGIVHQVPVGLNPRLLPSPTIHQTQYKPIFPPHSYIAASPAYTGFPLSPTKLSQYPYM
Put shortly:
as §1

The next assay deals with T6, MAP4K2/GCK (Homo sapiens, UniProt Q12851).
T6 construct: AssayQuant Technologies, Inc. (service provider)
T6 sequence (Q12851 1-820): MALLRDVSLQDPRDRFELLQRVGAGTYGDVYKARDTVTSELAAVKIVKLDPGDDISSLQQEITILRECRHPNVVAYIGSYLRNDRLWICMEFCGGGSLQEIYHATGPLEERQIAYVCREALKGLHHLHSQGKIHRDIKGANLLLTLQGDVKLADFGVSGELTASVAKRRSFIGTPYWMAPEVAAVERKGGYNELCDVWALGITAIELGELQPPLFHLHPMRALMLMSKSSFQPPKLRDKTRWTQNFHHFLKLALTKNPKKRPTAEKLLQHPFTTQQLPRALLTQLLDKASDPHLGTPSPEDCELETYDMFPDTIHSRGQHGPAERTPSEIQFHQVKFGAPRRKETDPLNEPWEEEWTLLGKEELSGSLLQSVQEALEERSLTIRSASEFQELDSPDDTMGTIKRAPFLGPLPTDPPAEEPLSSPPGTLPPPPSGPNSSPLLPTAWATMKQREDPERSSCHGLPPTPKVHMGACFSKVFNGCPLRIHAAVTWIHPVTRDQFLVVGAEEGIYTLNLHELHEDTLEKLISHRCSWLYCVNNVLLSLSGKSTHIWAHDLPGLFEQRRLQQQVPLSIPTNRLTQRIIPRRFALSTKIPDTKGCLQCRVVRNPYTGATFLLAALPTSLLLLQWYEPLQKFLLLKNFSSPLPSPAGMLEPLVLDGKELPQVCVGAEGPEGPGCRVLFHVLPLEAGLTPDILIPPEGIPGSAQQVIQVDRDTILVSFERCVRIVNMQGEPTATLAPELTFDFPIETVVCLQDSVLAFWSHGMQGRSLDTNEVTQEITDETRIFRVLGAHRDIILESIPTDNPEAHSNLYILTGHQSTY
Put shortly:
as §1

T2 sequence (Q06187 whole entry): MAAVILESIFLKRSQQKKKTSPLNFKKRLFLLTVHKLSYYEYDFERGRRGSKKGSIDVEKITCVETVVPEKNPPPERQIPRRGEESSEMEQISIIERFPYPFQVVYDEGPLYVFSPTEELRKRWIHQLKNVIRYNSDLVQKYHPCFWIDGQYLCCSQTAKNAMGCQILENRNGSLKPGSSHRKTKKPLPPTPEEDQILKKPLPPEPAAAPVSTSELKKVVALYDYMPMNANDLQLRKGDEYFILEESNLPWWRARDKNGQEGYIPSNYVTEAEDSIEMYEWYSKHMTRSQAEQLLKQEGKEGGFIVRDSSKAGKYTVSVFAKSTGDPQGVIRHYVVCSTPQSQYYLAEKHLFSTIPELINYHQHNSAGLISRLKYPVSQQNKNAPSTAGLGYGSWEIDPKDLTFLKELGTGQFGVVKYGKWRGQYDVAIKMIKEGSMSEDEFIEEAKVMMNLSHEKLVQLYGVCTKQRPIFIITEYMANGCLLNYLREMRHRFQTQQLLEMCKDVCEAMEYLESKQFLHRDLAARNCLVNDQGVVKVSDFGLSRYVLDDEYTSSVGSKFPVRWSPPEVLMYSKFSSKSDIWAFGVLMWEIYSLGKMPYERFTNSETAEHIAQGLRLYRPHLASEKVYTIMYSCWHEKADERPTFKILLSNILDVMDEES
Sequence of PRKACG (P22612 whole entry, species assumed): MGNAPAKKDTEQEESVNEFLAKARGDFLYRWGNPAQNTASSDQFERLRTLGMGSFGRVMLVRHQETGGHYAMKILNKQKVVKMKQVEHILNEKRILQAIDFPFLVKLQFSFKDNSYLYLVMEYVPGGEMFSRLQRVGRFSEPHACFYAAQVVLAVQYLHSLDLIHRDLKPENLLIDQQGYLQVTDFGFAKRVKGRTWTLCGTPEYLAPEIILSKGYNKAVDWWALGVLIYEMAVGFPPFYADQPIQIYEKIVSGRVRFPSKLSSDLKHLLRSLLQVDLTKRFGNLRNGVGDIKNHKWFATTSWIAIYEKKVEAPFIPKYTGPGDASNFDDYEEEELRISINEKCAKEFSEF

As usually defined, the inhibition is the change of the read-out against control, counted positive when it falls. For `C=CC(=O)N1CCCC(c2c(F)cc(C(N)=O)c3[nH]c4c(c23)CCCCC4)C1` (single isomer, unassigned) [Compound 5-6], the inhibition at 1 µM on PRKD3 was 4.4%; against BTK, 92.8%; at PRKACG, 4.2%; on CHEK2/CHK2, 0.6%; at HIPK4, -1.6%; against HIPK3, -11.2%. In addition, the inhibition at 1 µM on MAP4K2/GCK is -46.6%.
In the case of `C=CC(=O)N1CCC[C@@H](c2c(F)cc(C(N)=O)c3[nH]c4c(c23)CC2(CC4)CC2)C1` [Compound 6-2, (S)-5-(1-acryloylpiperidin-3-yl)-6-fluoro-1,2,4,9-tetrahydrospiro[carbazole-3,1′-cyclopropane]-8-carboxamide], the inhibition at 1 µM at PRKD3 was -62.4%; against BTK it was 97.4%; on PRKACG it was -27.2%; at CHEK2/CHK2, -14.1%; on HIPK4 it was -1.9%; against HIPK3, 30.6%. The inhibition at 1 µM on MAP4K2/GCK was -1.3%.
`C=CC(=O)N1CCC[C@@H](c2c(F)cc(C(N)=O)c3[nH]c4c(c23)CCC4)C1` [Compound 10-2, (S)-8-(1-acryloylpiperidin-3-yl)-7-fluoro-1,2,3,4-tetrahydrocyclo-penta[b]indole-5-carboxamide]: the inhibition at 1 µM on PRKD3 is -65.4%; on BTK, 93.8%; on PRKACG, -19.2%; against CHEK2/CHK2, -9.2%; on HIPK4 it was 24.3%; on HIPK3, 34.7%. Moreover, the inhibition at 1 µM on MAP4K2/GCK is -1.3%.
